Experimental data published in patent US20120058936A1, “COMPOSITIONS AND METHODS FOR ELIMINATION OF GRAM NEGATIVE BACTERIA” (ASSISTANCE PUBLIQUE - HOPITAUX DE PARIS, priority 2009, published 2012).
Entries after “also recorded” stand apart in the source; their conditions may differ.

Legend:
[1] = test system: enterobacteria present in the colon; conditions: oral treatment; azithromycin daily dose of 500 mg; cited from earlier work
[2] = BioDis (USP III) release test in simulated human gastrointestinal fluids; format: physicochemical; conditions: Biodiss system; successively soaked in simulated gastric, proximal jejunum, late jejunum, ileum and colon fluids (FIG. 2)
Method: In a particular embodiment, the intermediate coating is selected in order to achieve a delayed and/or controlled release of the antibacterial, as measured by in vitro testing such as BioDis dissolution tester (USP III release apparatus). In this system, the dosage form is successively placed into glass tubes (filled with approx 200 mL of dissolution media) corresponding to the different sections of the gastrointestinal tract, such as described by Fotaki and Coll, in European Journal of Pharmaceutics and Biopharmaceutics 73 (2009) 115-120. This allows a good simulation of in vivo release before testing into mammals. pH, fed state and various other physiological conditions can be tested. Using the BioDis system, it is possible for those skilled in the art to finely tune the formulation to achieve a desired pre-determined delayed release. It will be understood that this method is also useful for testing any kind of drug delivery system intended to deliver the antimicrobial(s) in a desired part of the intestine.
Legend: FIG. 1: Release of azithromycine in simulated human gastrointestinal tract using a Biodis system. The azithromycin cellet formulation, coated with 35% FS30D (Batch GL-058B4), is successively soaked into simulated fluids such as gastric, proximal jejunum, late jejunum, Ileum and colon. […]

erythrocyte = conditions: MIC for many bacteria; cited from earlier work

CC[C@H]1OC(=O)[C@H](C)[C@@H](O[C@H]2C[C@@](C)(OC)[C@@H](O)[C@H](C)O2)[C@H](C)[C@@H](O[C@@H]2O[C@H](C)C[C@H](N(C)C)[C@H]2O)[C@](C)(O)C[C@@H](C)CN(C)[C@H](C)[C@@H](O)[C@]1(C)O [Azithromycin]
elimination of enterobacteria from the colon [1]: effective to eliminate Gram-negative enterobacteria from the colon

CC[C@H]1OC(=O)[C@H](C)[C@@H](O[C@H]2C[C@@](C)(OC)[C@@H](O)[C@H](C)O2)[C@H](C)[C@@H](O[C@@H]2O[C@H](C)C[C@H](N(C)C)[C@H]2O)[C@](C)(O)C[C@@H](C)C(=O)[C@H](C)[C@@H](O)[C@]1(C)O [erythromycin]
elimination of enterobacteria from the colon [1]: eliminated from the lumen

colistin
Release of colistin in simulated human gastrointestinal tract [2]: improves the release of colistin; also recorded: prevent from total colistin release

gramicidin S
concentration causing erythrocyte lysis relative to the MIC (erythrocyte): threefold higher than the MIC
